A short description of this series: Estimated solubility of the salt in organic solvents. Format: physicochemical. The method, then: (b) The Form B salt described in (a) above was also prepared by dissolving, in a vial, 20% w of a sample of the benzoate salt prepared by the method of Example 1(b) (Form A) in a solvent such as methanol (>20 mg/ml), ethanol (>20 mg/ml), n-propanol (>20 mg/ml), isopropanol (8.5 mg/ml) or acetone (9.6 mg/ml). The figures in brackets indicate the estimated solubility of the salt in these solvents. The vial was then sealed and the suspension was homogenised at ambient temperature (20° C.) using a magnet. Stirring and temperature were maintained for a period of at least 7 days after which time a sample of the material obtained was dried and tested by XRPD. XRPD confirmed that there had been complete transformation of Form A to Form B.
(a) Form B was prepared by dissolving, in a vial, 20% w of a sample of the furoate salt prepared by the method of Example 1(b) (Form A) in a solvent such as ethanol (16 mg/ml) or 2-butanol (8 mg/ml). The figures in brackets indicate the estimated solubility of the salt in these solvents. The vial was then sealed and the suspension was homogenised at ambient temperature (20° C.) using a magnet. Stirring and temperature were maintained for a period of at least 7 days after which time a sample of the material obtained was dried and tested by XRPD. XRPD confirmed that there had been complete transformation of Form A to Form B.

Some results are limits rather than exact numbers.

Turning to `CC(=O)Nc1ccc(O)cc1OC[C@@](C)(O)CNC1CCN(Cc2ccc(Cl)cc2)CC1.O=C(O)c1ccco1` [1(c), N-{2-[((2S)-3-{[1-(4-chlorobenzyl)piperidin-4-yl]amino}-2-hydroxy-2-methylpropyl)oxy]-4-hydroxyphenyl}acetamide furoate (1:1 Salt), Form A], the “estimated solubility of the salt” value (2-butanol) was 8 mg/mL and the “estimated solubility of the salt” value (ethanol) is 16 mg/mL.

For the compound `CC(=O)Nc1ccc(O)cc1OC[C@@](C)(O)CNC1CCN(Cc2ccc(Cl)cc2)CC1.O=C(O)c1ccccc1` [Example 1(b), N-{2-[((2S)-3-{[1-(4chlorobenzyl)piperidin-4-yl]amino}-2-hydroxy-2-methylpropyl)oxy]-4-hydroxyphenyl}acetamide benzoate (1:1 Salt), Form A], the “estimated solubility of the salt” value (acetone) is 9.6 mg/mL; the “estimated solubility of the salt” value (ethanol) was greater than 20 mg/mL; the “estimated solubility of the salt” value (isopropanol) was 8.5 mg/mL; the “estimated solubility of the salt” value (methanol) was greater than 20 mg/mL; the “estimated solubility of the salt” value (n-propanol) was greater than 20 mg/mL.

The values are drawn from patent US20090298875A1, “A Combination of Compounds, Which Can be Used in the Treatment of Respiratory Diseases, Especially Chronic Obstructive Pulmonary Disease (COPD) and Asthma” (ASTRAZENECA AB, priority 2005, published 2009).
